What follows are compounds tested on tobacco budworm (Heliothis virescens [Fabricius]) (assay: surface-treated diet test against tobacco budworm). Details: 0.25 millimolar on the surface of the diet; second instar larvae; five-day exposure.
Format: in vivo
Description: Candidate insecticides were evaluated for activity against the tobacco budworm (Heliothis virescens [Fabricius]) in a surface-treated diet test.
In this test one mL of molten (65-70° C.) wheat germ-based artificial diet was pipetted into each well of a four by six (24 well) multi-well plate (ID# 430345-15.5 mm dia.×17.6 mm deep; Corning Costar Corp., One Alewife Center, Cambridge, Mass. 02140). The diet was allowed to cool to ambient temperature before treatment with candidate insecticide.
For a determination of insecticidal activity, solutions of the candidate insecticides were prepared for testing using a Packard 204DT Multiprobe® Robotic System (Packard Instrument Company, 800 Research Parkway, Meriden, Conn. 06450), in which the robot first diluted a standard 50 millimolar DMSO solution of candidate insecticide with a 1:1 water/acetone solution (V/V) in a ratio of 1:7 stock solution to water/acetone. The robot subsequently pipetted 40 microliters of the so-prepared solution onto the surface of the diet in each of three wells in the 24 multi-well plate. The process was repeated with solutions of seven other candidate insecticides. Once treated, the contents of the multi-well plate were allowed to dry, leaving 0.25 millimoles of candidate insecticide on the surface of the diet, or a concentration of 0.25 millimolar. Appropriate untreated controls containing only DMSO on the diet surface were also included in this test.
For evaluations of the insecticidal activity of a candidate insecticide at varying rates of application, the test was established as described above using sub-multiples of the standard 50 millimolar DMSO solution of candidate insecticide. For example, the standard 50 millimolar solution was diluted by the robot with DMSO to give 5, 0.5, 0.05, 0.005, 0.0005 millimolar, or more dilute solutions of the candidate insecticide. In these evaluations there were six replicates of each rate of application placed on the surface of the diet in the 24 multi-well plate, for a total of four rates of application of candidate insecticide in each plate.
In each well of the test plate was placed one second instar tobacco budworm larvea, each weighing approximately five milligrams. After the larvae were placed in each well, the plate was sealed with clear polyfilm adhesive tape. The tape over each well was perforated to ensure an adequate air supply. The plates were then held in a growth chamber at 25° C. and 60% relative humidity for five days (light 14 hours/day).
After the five-day exposure period insecticidal activity for each rate of application of candidate insecticide was assessed as percent inhibition of insect weight relative to the weight of insects from untreated controls, and percent mortality when compared to the total number of insects infested.
The test compounds of formula I are identified by numbers that correspond to those in Table 1.

Row | SMILES | Percent Mortality
1 | CSC(=C[N+](=O)[O-])NCCN(CCC(F)(F)F)Cc1ccc(Cl)nc1 [Compound 3] | 50%
2 | CSC(=C[N+](=O)[O-])NCCN(CC#N)Cc1ccc(Cl)nc1 [Compound 10] | 17%
3 | C=CCN(CCNC(=C[N+](=O)[O-])OC)Cc1ccc(Cl)nc1 [Compound 242] | 83%
4 | C#CCN(CCN/C(=C/[N+](=O)[O-])OC)Cc1ccc(Cl)nc1 [Compound 244] | 83%
5 | C#CCN(CCNC(=C[N+](=O)[O-])SC)Cc1ccc(Cl)nc1 [Compound 248, {2-[((1Z)-1-methylthio-2-nitrovinyl)amino]ethyl}[(6-chloro(3-pyridyl)methyl]prop-2-ynylamine] | 100%

Same assay, conditions: 0.25 millimolar on the surface of the diet; second instar larvae; five-day exposure; insect weight relative to untreated controls

Row | SMILES | Percent Growth Inhibition
6 | COC(=C[N+](=O)[O-])NCCN(CCCF)Cc1ccc(Cl)nc1 [Compound 1] | 100%
7 | CSC(=C[N+](=O)[O-])NCCN(CCCF)Cc1ccc(Cl)nc1 [Compound 2] | 100%
8 | CSC(=C[N+](=O)[O-])NCCN(CCC(F)(F)F)Cc1ccc(Cl)nc1 [Compound 3] | 96%
9 | COCCN(CCNC(=C[N+](=O)[O-])SC)Cc1ccc(Cl)nc1 [Compound 4] | 100%
10 | CCOCCN(CCNC(=C[N+](=O)[O-])SC)Cc1ccc(Cl)nc1 [Compound 5] | 100%
11 | COCCOCCN(CCNC(=C[N+](=O)[O-])OC)Cc1ccc(Cl)nc1 [Compound 6] | 95%
12 | COCCOCCN(CCNC(=C[N+](=O)[O-])SC)Cc1ccc(Cl)nc1 [Compound 7] | 99%
13 | COCCOCCN(CCNC(=C[N+](=O)[O-])OCCOC)Cc1ccc(Cl)nc1 [Compound 8] | 100%
14 | CSC(=C[N+](=O)[O-])NCCN(O)Cc1ccc(Cl)nc1 [Compound 9] | 91%
15 | CSC(=C[N+](=O)[O-])NCCN(CC#N)Cc1ccc(Cl)nc1 [Compound 10] | 90%
16 | CSC(=C[N+](=O)[O-])NCCN(Cc1ccc(Cl)nc1)CC1CCOC1 (centres unmarked) [Compound 14] | 100%
17 | CSC(=C[N+](=O)[O-])NCCN(Cc1ccc(Cl)nc1)CC1CCCCO1 (centres unmarked) [Compound 15] | 85%
18 | CSC(=C[N+](=O)[O-])NCCN(Cc1ccc(Cl)nc1)Cc1ccsc1 [Compound 17] | 99%
19 | CSC(=C[N+](=O)[O-])NCCN(Cc1ccc(Cl)nc1)Cc1ccco1 [Compound 18] | 100%
20 | CSC(=C[N+](=O)[O-])NCCN(Cc1ccc(Cl)nc1)Cc1ccoc1 [Compound 19] | 100%
21 | CCN(CCNC(=C[N+](=O)[O-])OC)Cc1ccc(Cl)nc1 [Compound 41] | 100%
22 | COC(=C[N+](=O)[O-])NCCN(Cc1ccc(Cl)nc1)Cc1ccc(Cl)nc1 [Compound 187] | 50%
23 | CC(C)COC(=C[N+](=O)[O-])NCCN(Cc1ccc(Cl)nc1)Cc1ccc(Cl)nc1 [Compound 189] | 100%
24 | O=[N+]([O-])C=C(NCCN(Cc1ccc(Cl)nc1)Cc1ccc(Cl)nc1)OCC1CCCCC1 [Compound 190] | 100%
25 | CSC(=C[N+](=O)[O-])NCCN(Cc1cccnc1)Cc1ccc(Cl)nc1 [Compound 192] | 92%
26 | CSC(=C[N+](=O)[O-])NCCN(Cc1ccc(Cl)nc1)Cc1ccc(Cl)nc1 [Compound 198] | 50%
27 | CC(C)CSC(=C[N+](=O)[O-])NCCN(Cc1ccc(Cl)nc1)Cc1ccc(Cl)nc1 [Compound 202] | 100%
28 | O=[N+]([O-])C=C(NCCN(Cc1ccc(Cl)nc1)Cc1ccc(Cl)nc1)SCC1CCCCC1 [Compound 203] | 100%
29 | C=CCN(CCNC(=C[N+](=O)[O-])SC)Cc1ccc(Cl)nc1 [Compound 220] | 100%
30 | C=CCN(CCNC(=C[N+](=O)[O-])SCC1CCCCC1)Cc1ccc(Cl)nc1 [Compound 221] | 100%
31 | C=CCCN(CCNC(=C[N+](=O)[O-])SC)Cc1ccc(Cl)nc1 [Compound 222] | 100%
32 | CC=CCN(CCNC(=C[N+](=O)[O-])SC)Cc1ccc(Cl)nc1 [Compound 223] | 98%

Row | SMILES | Percent Growth Inhibition
33 | CSC(=C[N+](=O)[O-])NCCN(CC=CCl)Cc1ccc(Cl)nc1 [Compound 224] | 100%
34 | C=C(Cl)CN(CCNC(=C[N+](=O)[O-])SC)Cc1ccc(Cl)nc1 [Compound 225] | 89%
35 | CSC(=C[N+](=O)[O-])NCCN(CC=C(Cl)Cl)Cc1ccc(Cl)nc1 [Compound 228] | 100%
36 | CSC(=C[N+](=O)[O-])NCCN(CCC(F)=C(F)F)Cc1ccc(Cl)nc1 [Compound 229] | 96%
37 | CSC(=C[N+](=O)[O-])NCCN(CC=Cc1ccccc1)Cc1ccc(Cl)nc1 [Compound 230] | 88%
38 | C=CCN(CCNC(=N[N+](=O)[O-])SC)Cc1ccc(Cl)nc1 [Compound 231] | 100%
39 | C=CCN(CCNC(=C[N+](=O)[O-])OC)Cc1ccc(Cl)nc1 [Compound 242] | 96%
40 | C#CCN(CCN/C(=C/[N+](=O)[O-])OC)Cc1ccc(Cl)nc1 [Compound 244] | 100%
41 | C#CCN(CCNC(=C[N+](=O)[O-])OCC)Cc1ccc(Cl)nc1 [Compound 245] | 100%
42 | C#CCN(CCNC(=C[N+](=O)[O-])OCCOC)Cc1ccc(Cl)nc1 [Compound 246] | 100%
43 | C#CCN(CCNC(=C[N+](=O)[O-])OCCOCCOC)Cc1ccc(Cl)nc1 [Compound 247] | 100%
44 | C#CCN(CCNC(=C[N+](=O)[O-])SC)Cc1ccc(Cl)nc1 [Compound 248, {2-[((1Z)-1-methylthio-2-nitrovinyl)amino]ethyl}[(6-chloro(3-pyridyl)methyl]prop-2-ynylamine] | 100%
45 | C#CCCN(CCNC(=C[N+](=O)[O-])SC)Cc1ccc(Cl)nc1 [Compound 252] | 100%
46 | CC#CCN(CCNC(=C[N+](=O)[O-])SC)Cc1ccc(Cl)nc1 [Compound 253] | 100%
47 | CC#CCCN(CCNC(=C[N+](=O)[O-])SC)Cc1ccc(Cl)nc1 [Compound 254] | 100%
48 | CCCCCC#CCN(CCNC(=C[N+](=O)[O-])SC)Cc1ccc(Cl)nc1 [Compound 255] | 88%
49 | C#CCN(CCNC(=C[N+](=O)[O-])OCC1CCCCC1)Cc1ccc(Cl)nc1 [Compound 256] | 100%
50 | C#CCN(CCNC(=C[N+](=O)[O-])SCC1CCCCC1)Cc1ccc(Cl)nc1 [Compound 257] | 100%
51 | C#CCCN(CCNC(=C[N+](=O)[O-])SCC1CCCCC1)Cc1ccc(Cl)nc1 [Compound 258] | 100%
52 | C#CCN(CCNC(=N[N+](=O)[O-])SC)Cc1ccc(Cl)nc1 [Compound 279] | 100%
53 | CSC(=C[N+](=O)[O-])NCCN(CCC#Cc1ccc(Cl)cc1)Cc1ccc(Cl)nc1 [Compound 301] | 100%
54 | CSC(=C[N+](=O)[O-])NCCN(CC#Cc1ccc(F)cc1)Cc1ccc(Cl)nc1 [Compound 302] | 97%
55 | CSC(=C[N+](=O)[O-])NCCN(CC#Cc1cncnc1)Cc1ccc(Cl)nc1 [Compound 304] | 61%
56 | O=[N+]([O-])C=C(NCCN(Cc1ccccc1)Cc1ccc(Cl)nc1)SCc1ccc(C(F)(F)F)cc1 [Compound 307] | 100%
57 | COc1ccc(CN(CCNC(=N[N+](=O)[O-])SCc2ccccc2)Cc2ccc(Cl)nc2)cc1 [Compound 310] | 100%
58 | COc1ccc(CN(CCNC(=N[N+](=O)[O-])SCc2ccc(Cl)cc2)Cc2ccc(Cl)nc2)cc1 [Compound 311] | 100%
59 | O=[N+]([O-])C=C(NCCN(Cc1ccc(Cl)nc1)Cc1ccc(Cl)nc1)SCc1ccccc1Cl [Compound 314] | 100%

From US7977332B2, “Insecticidal N-(heteroarylalkyl)alkanediamine derivatives” (FMC Corporation, priority 2003, dated 2011)
